In patent publication US20190204335A1, “Assay Method For Determining The Risk Of Pre-Eclampsia” (The Queen's University of Belfast, priority 2016, published 2019):
Entries after “also recorded” stand apart in the source; their conditions may differ.

Columns and labels:
FKBPL [1] = test: FKBPL mRNA levels in HTR8.SV.neo cells; assay type: cell-based; conditions: 10 μM, 24 h, serum-containing medium
Description: (§1) Trophoblast (HTR8.SV.neo, BeWo) and endothelial cells (HUVEC) were exposed to: • i. diabetic stimuli, in the form of highly oxidised and glycated low density lipoproteins (HOG-LDL, 25 μg/ml)/4HNE (10 μM) or high glucose (10, 20, 30, 40 mM); or • ii. hypoxia (1%) or DMOG (10 μM), before FKBPL/SIRT1 protein and RNA levels were measured.

FKBPL [2] = test: FKBPL protein expression in BeWo trophoblast cell line; assay type: cell-based; conditions: BeWo cells, 10 μM, serum-containing medium
Description: as §1

FKBPL [3] = test: FKBPL protein level in HUVEC under hypoxia or normoxia (Western blotting); assay type: cell-based, human; conditions: 24 h, metformin 10 μM
Description: HUVEC cells were seeded and then exposed to hypoxia (1%) or normoxia (21%) for 24 h in the presence of metformin or vehicle control (VC). Protein lysates were prepared and FKBPL protein level measured using Western blotting.

## CCCCCC(O)/C=C/C=O (centres unmarked) [4-HNE]
FKBPL [1]
  FKBPL mRNA levels: No change
FKBPL [1]; listed as 4HNE
  FKBPL mRNA levels: No change in FKBPL mRNA levels
FKBPL [2]
  FKBPL protein expression: downregulation of FKBPL protein expression
FKBPL [2]; listed as 4HNE
  FKBPL protein expression: reduction in FKBPL protein levels

## COC(=O)CNC(=O)C(=O)OC [DMOG]
FKBPL [1]
  FKBPL mRNA levels: reduction in FKBPL mRNA levels; also recorded: downregulation in FKBPL mRNA levels
FKBPL [2]
  FKBPL protein expression: reduction; also recorded: downregulation of FKBPL protein expression

## CN(C)C(=N)N=C(N)N [metformin]
FKBPL [3]; hypoxia (1%)
  FKBPL expression normalised to vehicle control: increasing the protein expression of FKBPL; also recorded: upregulates FKBPL
FKBPL [3]; normoxia (21%)
  FKBPL expression normalised to vehicle control: No change in FKBPL levels; also recorded: does not affect levels of FKBPL
